16 compounds from patent US20220274980A1, “PHARMACOLOGICAL INHIBITORS OF THE ENL YEATS DOMAIN” (priority 2019, published 2022) can be followed below.

One assay addresses T1, ENL YEATS domain (association with H3K27cr) (Homo sapiens, UniProt Q03111).
T1 sequence (Q03111 1-148): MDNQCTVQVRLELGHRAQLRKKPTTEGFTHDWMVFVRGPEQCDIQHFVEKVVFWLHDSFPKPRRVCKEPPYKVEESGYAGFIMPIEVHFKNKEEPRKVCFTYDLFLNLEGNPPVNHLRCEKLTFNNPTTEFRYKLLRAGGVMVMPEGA
Put plainly: biochemical. As to conditions: ENL (YEATS)-H3K27cr HTRF (IC50, μM), Table 1. How it is done:
(§1) Protein Production. Double stranded DNA fragments encoding the protein sequence of ENL YEATS(1-148) were synthesized (IDT DNA) for assembly-based cloning into a modified expression vector backbone derived from pET21a (Novagen). The protein was fused to a StrepII-SUMO and 6×His tag on the amino and carboxy terminus, respectively. Transformed BL21(DE3) cells (New England Biolabs) were grown at 37° C. in 2×YT growth medium to an OD600 of 0.6. Protein expression was induced at 25° C. with the addition of isopropyl-β-D-thiogalactopyranoside (IPTG) to a final concentration of 0.4 mM. The culture was harvested by centrifugation following a 20-hour incubation and subsequently purified by immobilized metal affinity chromatography. Cells were resuspended 50 mM Tris-HCl pH 8.0, 300 mM NaCl, 10% glycerol, 10 mM imidazole, 1 mM DTT containing Complete EDTA-free protease inhibitor (Roche) and lysed by two passes through a MicroFluidizer at 10,000 psi. The lysate was clarified by centrifugation at 16,000 rpm for 30 minutes at 4° C. The supernatant was passed over NiNTA agarose (QIAGEN) and the protein was eluted in 50 mM Tris-HCl pH 8.0, 300 mM NaCl, 10% glycerol, 250 mM imidazole, 1 mM DTT. Fractions containing the ENL YEATS(1-148) fusion protein were buffer exchanged into 100 mM Tris-HCl pH 8.0, 150 mM NaCl, 1 mM EDTA, 1 mM DTT using PD10 desalting columns (GE Life Sciences). Ulp1 protease was added to cleave the StrepII-SUMO fusion and the reaction mixture was incubated overnight at 4° C. The cleavage reaction mixture was loaded onto a StrepTrap column (GE Life Sciences) and ENL YEATS(1-148) was recovered in the flow through. BRD4 BD1 was purchased from Cayman (Cat. No. 11720).
(§2) Homogenous time-resolved FRET (HTRF) histone-binding assays. Both HTRF assays were performed by combining recombinant protein and synthetic histone peptide in assay buffer (25 mM HEPES pH 7, 20 mM NaCl, 0.2% Pluronic F-127, and 0.05% BSA) with 1 nM LanthaScreen Eu-anti-His Tag antibody (ThermoFisher, Cat. No, PV5597) and 8.9 nM SureLight allophycocyanin-streptavidin (Perkin Elmer, APC-SA, Cat. No. CR130-100). ENL YEATS was used at 5 nM and BRD4 BD1 was used at 10 nM. ENL assays were performed with H3(13-32)K27cr (13.3 and 100 nM, respectively), custom synthesized at ABclonal (N-terminal biotin, C-terminal amide); BRD4 BD1 assay was performed with 13.3 nM tetra-acetylated H4 (BioVision, Cat. No. 7144-01). Once all reagents were combined (with or without peptide), 10 μL was dispensed per well into black 384-well low-volume plates (Corning, Cat. No. 3821) and drug was added by pin tool transfer (Biomek FX). Assays were incubated for 2 or more hours before measurement of HTRF signal on a PHERAstar plate reader (BMG Labtech; simultaneous dual emission; excitation=337 nm, emission 1=665 nm, emission 2=620 nm). HTRF signal (ratio of emission 1 to emission 2) from vehicle-treated wells (maximum signal) and no-peptide-control wells (minimum signal) were used to calculate percent inhibition for drug-treated wells.
With `CC(C)NC(=O)c1ccc2nc(-c3ccccc3)cn2c1` [Compound 1], 4 µM corresponded to half-maximal inhibition (IC50). In other words, the single-digit micromolar range.
Still for that read-out and setting: the value for `CCc1ccc(-c2cn3cc(C(=O)NC4CC4)ccc3n2)cc1` [Compound 28] was 5 µM; that for `O=C(NCC1CC1)c1ccc2nc(-c3ccccc3)cn2c1` [Compound 29] was 6 µM.
As for `CC(NC(=O)c1ccc2nc(-c3ccccc3)cn2c1)c1ccccn1` (stereo not drawn) [Compound 30], inhibition was half-maximal at 6 µM (IC50).
Still for that read-out and setting: the same measure for `O=C(NC1CCC(O)CC1)c1ccc2nc(-c3ccccc3)cn2c1` (stereo not drawn) [Compound 31]: 7 µM; for `O=C(NC1CCC(O)CC1)c1ccc2nc(-c3ccc(F)cc3)cn2c1` (stereo not drawn) [Compound 32]: 7 µM; for `O=C(NC1CC1)c1ccc2nc(-c3ccccc3)cn2c1` [Compound 33]: 9 µM.
On to `Cc1ccc(-c2cn3cc(C(=O)NC(C)c4cccnc4)ccc3n2)cc1` (stereo not drawn) [Compound 35], for which the IC50 is 10 µM.
Still for that read-out and setting: the value for `CC(C)NC(=O)c1ccc2nc(-c3cccc([N+](=O)[O-])c3)cn2c1` [Compound 36] was 3.7 µM; that for `CC(C)NC(=O)c1ccc2nc(-c3ccc([N+](=O)[O-])cc3)cn2c1` [Compound 37] was 2.8 µM.
The compound `CC(C)NC(=O)c1ccc2nc(-c3cccc(N)c3)cn2c1` [Compound 38] gave an IC50 of 10.7 µM.
On to `CC(C)NC(=O)c1ccc2nc(-c3ccc(N)cc3)cn2c1` [Compound 39], for which the IC50 amounted to 7.8 µM.
Still for that read-out and setting: the value for `CC(C)NC(=O)c1ccc2nc(-c3cccc(NS(=O)(=O)NCCOCCO)c3)cn2c1` [Compound 42] was 0.55 µM; that for `CC(C)NC(=O)c1ccc2nc(-c3cccc(NS(=O)(=O)NCCCCO)c3)cn2c1` [Compound 43] was 0.47 µM.
Consider `CC(C)NC(=O)c1ccc2nc(-c3cccc(NS(=O)(=O)NCCCO)c3)cn2c1` [Compound 44], for which the IC50 is 0.56 µM.
For the compound `CC(C)NC(=O)c1ccc2nc(-c3cccc(NS(=O)(=O)NCCCN4CCOCC4)c3)cn2c1` [Compound 45], the IC50 turned out to be 0.55 µM. The IC50 values of the last two compounds are within 1.5-fold of each other.

Staying with this assay, now noted: ENL (YEATS)-H3K27cr HTRF (IC50, μM), Table 2.
Turning to `CC(C)NC(=O)c1ccc2nc(-c3ccccc3)cn2c1` [Compound 1], the IC50 is 4 µM.
With `CCc1ccc(-c2cn3cc(C(=O)NC4CC4)ccc3n2)cc1` [Compound 28], the IC50 was 5 µM.
As to `O=C(NCC1CC1)c1ccc2nc(-c3ccccc3)cn2c1` [Compound 29], the IC50 amounted to 6 µM.
For `CC(NC(=O)c1ccc2nc(-c3ccccc3)cn2c1)c1ccccn1` (stereo not drawn) [Compound 30], the IC50 came out at 6 µM.
Regarding `O=C(NC1CCC(O)CC1)c1ccc2nc(-c3ccccc3)cn2c1` (stereo not drawn) [Compound 31], the IC50 turned out to be 7 µM.
For `O=C(NC1CCC(O)CC1)c1ccc2nc(-c3ccc(F)cc3)cn2c1` (stereo not drawn) [Compound 32], the IC50 was determined as 7 µM.
Same read-out and setting: the same measure for `O=C(NC1CC1)c1ccc2nc(-c3ccccc3)cn2c1` [Compound 33]: 9 µM; for `Cc1ccc(-c2cn3cc(C(=O)NC(C)c4cccnc4)ccc3n2)cc1` (stereo not drawn) [Compound 35]: 10 µM; for `CC(C)NC(=O)c1ccc2nc(-c3cccc([N+](=O)[O-])c3)cn2c1` [Compound 36]: 3.7 µM.
The compound `CC(C)NC(=O)c1ccc2nc(-c3ccc([N+](=O)[O-])cc3)cn2c1` [Compound 37] registered an IC50 of 2.8 µM.
Compound `CC(C)NC(=O)c1ccc2nc(-c3cccc(N)c3)cn2c1` [Compound 38] registered an IC50 of 10.7 µM.
Same read-out and setting: the value for `CC(C)NC(=O)c1ccc2nc(-c3ccc(N)cc3)cn2c1` [Compound 39] was 7.8 µM; that for `CC(C)NC(=O)c1ccc2nc(-c3cccc(NS(=O)(=O)NCCOCCO)c3)cn2c1` [Compound 42] was 0.55 µM; that for `CC(C)NC(=O)c1ccc2nc(-c3cccc(NS(=O)(=O)NCCCCO)c3)cn2c1` [Compound 43] was 0.47 µM.
In turn, `CC(C)NC(=O)c1ccc2nc(-c3cccc(NS(=O)(=O)NCCCO)c3)cn2c1` [Compound 44] had an IC50 of 0.56 µM.
The same measure, in the same setting: the same measure for `CC(C)NC(=O)c1ccc2nc(-c3cccc(NS(=O)(=O)NCCCN4CCOCC4)c3)cn2c1` [Compound 45]: 0.55 µM.

A further assay has as its target T2, BRD4 bromodomain 1 (BD1) (Homo sapiens, UniProt O60885).
T2 construct: Selectivity against BRD4 bromodomain 1 (BD1), measured by HTRF; His; purchased Cayman 11720
Put plainly: BRD4 (BD1)-H4 tetra-acetylated HTRF histone-binding assay. To be noted: Table 1. How it is done: as §1, §2
Consider `CC(C)NC(=O)c1ccc2nc(-c3ccccc3)cn2c1` [Compound 1], for which the IC50 is greater than 50 µM.
`CC(C)NC(=O)c1ccc2nc(-c3cccc([N+](=O)[O-])c3)cn2c1` [Compound 36]: the IC50 is greater than 50 µM.
On the same count and under the same terms, the same measure for `CC(C)NC(=O)c1ccc2nc(-c3ccc([N+](=O)[O-])cc3)cn2c1` [Compound 37]: greater than 50 µM; for `CC(C)NC(=O)c1ccc2nc(-c3cccc(N)c3)cn2c1` [Compound 38]: greater than 50 µM.
On the same count and under the same terms, the value for `CC(C)NC(=O)c1ccc2nc(-c3ccc(N)cc3)cn2c1` [Compound 39] was greater than 50 µM; that for `CC(C)NC(=O)c1ccc2nc(-c3cccc(NS(=O)(=O)NCCOCCO)c3)cn2c1` [Compound 42] was greater than 50 µM.
Compound `CC(C)NC(=O)c1ccc2nc(-c3cccc(NS(=O)(=O)NCCCO)c3)cn2c1` [Compound 44] yielded an IC50 greater than 50 µM.
The compound `CC(C)NC(=O)c1ccc2nc(-c3cccc(NS(=O)(=O)NCCCN4CCOCC4)c3)cn2c1` [Compound 45] had an IC50 greater than 50 µM.

Staying with this assay, now noted: Table 2.
In the case of `CC(C)NC(=O)c1ccc2nc(-c3ccccc3)cn2c1` [Compound 1], the IC50 was greater than 50 µM.
In the case of `CC(C)NC(=O)c1ccc2nc(-c3cccc([N+](=O)[O-])c3)cn2c1` [Compound 36], the IC50 was greater than 50 µM.
The same measure, in the same setting: the value for `CC(C)NC(=O)c1ccc2nc(-c3ccc([N+](=O)[O-])cc3)cn2c1` [Compound 37] was greater than 50 µM; that for `CC(C)NC(=O)c1ccc2nc(-c3cccc(N)c3)cn2c1` [Compound 38] was greater than 50 µM; that for `CC(C)NC(=O)c1ccc2nc(-c3ccc(N)cc3)cn2c1` [Compound 39] was greater than 50 µM.
As to `CC(C)NC(=O)c1ccc2nc(-c3cccc(NS(=O)(=O)NCCOCCO)c3)cn2c1` [Compound 42], the IC50 is greater than 50 µM.
In the case of `CC(C)NC(=O)c1ccc2nc(-c3cccc(NS(=O)(=O)NCCCO)c3)cn2c1` [Compound 44], the IC50 was greater than 50 µM.
As to `CC(C)NC(=O)c1ccc2nc(-c3cccc(NS(=O)(=O)NCCCN4CCOCC4)c3)cn2c1` [Compound 45], the IC50 was greater than 50 µM.
